Experimental data taken from ChEMBL document CHEMBL1131953, “Synthesis of a tetrasubstituted bicyclo [2.2.2] octane as a potential inhibitor of influenza virus sialidase” (Bioorg Med Chem Lett, 1999).

What was measured:
[1] = system: Influenza A virus; test: Inhibitory activity against sialidase of influenza A; format: functional, organism-based
[2] = system: Influenza B virus; test: Inhibitory activity against sialidase of influenza B; format: functional, organism-based
[3] = system: Influenza B virus; test: Inhibitory activity against sialidase of influenza B at a concentration of 660 uM; format: functional

SMILES | IC50 [1] | IC50 [2] | inhibition at 660 µM [3]
CCCO[C@@H]1CC2(C(=O)O)CC[C@@]1(NC(C)=O)[C@@H](O)C2 (single isomer, unassigned) | 660 µM | 660 µM | 12%
CCCO[C@@H]1C=C(C(=O)O)C[C@H](N)[C@H]1NC(C)=O | 0.13 µM |  | 
